In patent US12653191B2, “Active compound combinations” (Bayer Aktiengesellschaft, priority 2020, dated 2026):
Where two headings read alike, the source gives them in different places.

Assays:
[1] = test system: Ustilago segetum var. avenae; test: in vitro-Test with fungal microorganisms, Method A (tables I1-I5); assay type: cell-based; details: alone, read-out: Efficacy %
How it was run: (§1)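 First, compound in methanol with alkylaryl-polyglycol-ether was dried down in the plate. Next, spore or mycelium suspension in potato dextrose broth was added and extinction read at 620 nm. After 3-5 days at 20° C, 85% RH, reading was repeated and efficacy scored against untreated wells.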

[2] = test system: Cordana musae; test: in vitro-Test with fungal microorganisms, Method A (tables E1-E8); assay type: cell-based; details: Neocordana musae, read-out: Efficacy %
How it was run: as §1

[3] = test system: Parastagonospora nodorum; test: in vitro-Test with fungal microorganisms, Method B (tables H5-H8); assay type: cell-based; details: Parastagonospora nodorum, read-out: Efficacy
How it was run: (§2)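 Cpd in MeOH + alkylaryl-polyglycol-ether, solvent evaporated; liquid medium + fungal spores/mycelium added; OD600 read; 3–7 d, 20° C., 85% RH; growth inhibition by photometry, % efficacy vs untreated ctrl.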

[4] = test system: Alternaria alternata; test: in vitro-Test with fungal microorganisms, Method B (tables A13-A22); assay type: cell-based; details: Alternaria alternata, read-out: Efficacy
How it was run: as §2

[5] = test system: Cercospora beticola; test: in vitro-Test with fungal microorganisms, Method B (tables C11-C20); assay type: cell-based; details: Cercospora beticola, single compound, 0.008 ppm; read-out: Efficacy %
How it was run: as §2

[6] = test system: Diaporthe citri; test: in vitro-Test with fungal microorganisms, Method B (tables F12-F15); assay type: cell-based; details: Table F15; 0.008 ppm alone
How it was run: as §2

[7] = test system: Diaporthe citri; test: in vitro-Test with fungal microorganisms, Method A (tables F1-F11); assay type: cell-based; details: Diaporthe citri, read-out: Efficacy
How it was run: as §1

[8] = test system: Colletotrichum lindemuthianum; test: in vitro-Test with fungal microorganisms, Method A (tables D1-D8); assay type: cell-based; details: Colletotrichum lindemuthianum, read-out: Efficacy %
How it was run: as §1

[9] = test system: Botrytis cinerea; test: in vitro-Test with fungal microorganisms, Method A (tables B1-B14); assay type: cell-based; details: Botrytis cinerea, alone, read-out: Efficacy %
How it was run: as §1

[10] = test system: Ustilago segetum var. avenae; test: in vitro-Test with fungal microorganisms, Method B (tables I6-I11); assay type: cell-based; details: read-out: Efficacy %
How it was run: as §2

[11] = test system: Colletotrichum coccodes; test: in vitro-Test with fungal microorganisms, Method B (tables J1-J11); assay type: cell-based; details: Colletotrichum coccodes, read-out: Efficacy %
How it was run: as §2

[12] = test system: Fusarium culmorum; test: in vitro-Test with fungal microorganisms, Method A (tables G1-G4); assay type: cell-based; details: Fusarium culmorum, read-out: Efficacy
How it was run: as §1

[13] = test system: Cercospora beticola; test: in vitro-Test with fungal microorganisms, Method A (tables C1-C10); assay type: cell-based; details: Cercospora beticola, read-out: Efficacy %
How it was run: as §1

[14] = test system: Alternaria alternate; test: in vitro-Test with fungal microorganisms, Method A (tables A1-A12); assay type: cell-based, Alternaria alternata; details: Alternaria, applied alone, read-out: Efficacy %
How it was run: as §1

**Q.** Which results are given for `CON=C(C(=O)OC)c1ccccc1CON=C(C)c1cccc(C(F)(F)F)c1` [(3.020) trifloxystrobin, trifloxystrobin]?
**A.** inhibition of growth at 0.008 ppm ([1]; 0.008 ppm): 19%; inhibition of growth at 0.04 ppm ([1]; 0.04 ppm): 0%; inhibition of growth at 1 ppm ([1]; 1.0 ppm): 64%; inhibition of growth at 5 ppm ([1]; 5.0 ppm): 100%; inhibition of growth at 0.008 ppm ([2]; mixing partner alone): 3%; inhibition of growth at 1 ppm ([2]; mixing partner alone): 66%; inhibition of growth at 0.008 ppm ([2]; single substance): 13%; inhibition of growth at 0.04 ppm ([2]; single substance, 0.04 ppm): 67%; inhibition of growth at 0.2 ppm ([2]; single substance, 0.2 ppm): 48%; inhibition of growth at 1 ppm ([2]; single substance): 77%; inhibition of growth at 0.008 ppm ([3]; 0.008 ppm): 17%; inhibition of growth at 0.04 ppm ([3]; 0.04 ppm): 54%; inhibition of growth at 0.2 ppm ([3]; 0.2 ppm): 83%; inhibition of growth at 1 ppm ([3]; 1 ppm): 87%; inhibition of growth at 0.04 ppm ([4]; 0.04 ppm): 49%; inhibition of growth at 0.2 ppm ([4]; 0.2 ppm): 85%; inhibition of growth at 0.008 ppm [5]: 96%; Efficacy [6]: 68%; inhibition of growth at 0.008 ppm ([7]; applied alone): 65%; inhibition of growth at 0.04 ppm ([7]; applied alone): 95%; inhibition of growth at 0.008 ppm ([7]; single active): 63%; inhibition of growth at 0.04 ppm ([7]; single active): 95%; inhibition of growth at 0.2 ppm ([7]; single active, 0.2 ppm): 95%; inhibition of growth at 1 ppm ([7]; single active, 1.0 ppm): 96%; inhibition of growth at 0.008 ppm ([8]; mixing partner alone, 0.008 ppm): 30%; inhibition of growth at 0.04 ppm ([8]; mixing partner alone, 0.04 ppm): 80%; inhibition of growth at 0.2 ppm ([8]; mixing partner alone, 0.2 ppm): 92%; inhibition of growth at 1 ppm ([8]; mixing partner alone, 1.0 ppm): 88%; inhibition of growth at 0.008 ppm ([8]; single active at 0.008 ppm): 25%; inhibition of growth at 0.04 ppm ([8]; single active at 0.04 ppm): 66%; inhibition of growth at 0.2 ppm ([8]; single active at 0.2 ppm): 85%; inhibition of growth at 1 ppm ([8]; single active at 1.0 ppm): 84%; inhibition of growth at 0.008 ppm ([9]; 0.008 ppm): 19%; inhibition of growth at 0.04 ppm ([9]; 0.04 ppm): 0%; inhibition of growth at 0.2 ppm ([9]; 0.2 ppm): 0%; inhibition of growth at 1 ppm ([9]; 1.0 ppm): 37%; inhibition of growth at 0.04 ppm ([10]; 0.04 ppm): 38%; inhibition of growth at 0.2 ppm ([10]; 0.2 ppm): 54%; inhibition of growth at 1 ppm ([10]; 1 ppm): 60%; inhibition of growth at 0.04 ppm ([11]; 0.04 ppm): 35%; inhibition of growth at 0.008 ppm ([11]; single active compound at 0.008 ppm): 0%; inhibition of growth at 1 ppm ([11]; single active compound at 1 ppm): 50%; inhibition of growth at 0.2 ppm ([12]; 0.2 ppm, alone): 22%; inhibition of growth at 1 ppm ([12]; 1.0 ppm, alone): 5%; inhibition of growth at 0.04 ppm ([12]; Table G1, 0.04 ppm alone): 0%; inhibition of growth at 0.2 ppm ([12]; Table G1, 0.2 ppm alone): 15%; inhibition of growth at 1 ppm ([12]; Table G1, 1.0 ppm alone): 15%; inhibition of growth at 0.008 ppm ([13]; 0.008 ppm alone): 95%; inhibition of growth at 0.04 ppm ([13]; 0.04 ppm alone): 100%; inhibition of growth at 0.2 ppm ([13]; 0.2 ppm alone): 100%; inhibition of growth at 1 ppm ([13]; 1.0 ppm alone): 100%; inhibition of growth at 0.008 ppm ([14]; 0.008 ppm): 44%; inhibition of growth at 0.04 ppm ([14]; 0.04 ppm): 87%; inhibition of growth at 0.2 ppm ([14]; 0.2 ppm): 95%; inhibition of growth at 1 ppm ([14]; 1.0 ppm): 96%
